Measurements from US20260191968A1, “PROTAC DEGRADERS OF MLLT1 AND/OR MLLT3” (DARK BLUE THERAPEUTICS LTD, priority 2024, published 2026).

Biological target: T1, MLLT1 (Homo sapiens, UniProt Q03111)
T1 construct: host or cells: MV4-11
T1 sequence (Q03111 1-559): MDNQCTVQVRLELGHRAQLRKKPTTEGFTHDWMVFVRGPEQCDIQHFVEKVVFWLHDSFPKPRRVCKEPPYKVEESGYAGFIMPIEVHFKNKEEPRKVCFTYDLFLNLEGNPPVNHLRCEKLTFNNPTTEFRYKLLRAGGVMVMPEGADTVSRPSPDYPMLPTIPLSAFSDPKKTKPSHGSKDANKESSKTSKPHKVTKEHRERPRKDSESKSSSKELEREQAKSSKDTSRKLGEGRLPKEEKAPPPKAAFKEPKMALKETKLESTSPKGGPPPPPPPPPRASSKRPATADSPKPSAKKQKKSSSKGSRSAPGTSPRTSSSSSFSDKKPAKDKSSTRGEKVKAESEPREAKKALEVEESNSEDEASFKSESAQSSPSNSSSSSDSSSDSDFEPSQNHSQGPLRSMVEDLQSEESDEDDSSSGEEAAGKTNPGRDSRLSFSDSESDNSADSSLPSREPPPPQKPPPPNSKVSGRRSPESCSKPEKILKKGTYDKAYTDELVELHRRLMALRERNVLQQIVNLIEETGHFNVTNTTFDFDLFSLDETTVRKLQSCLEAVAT
Test: MLLT1 degradation assay in MV4-11 cells (JESS chemiluminescent detection), three concentrations, 24 h
Type: cell-based
Settings: with respect to DMSO control
Protocol: MLLT1 degradation efficacy of compounds were tested in an automated chemiluminescent detection system (JESS, Cat #004-650). […] 10 mM DMSO stocks were prepared, and cells were treated with three concentrations of test compounds viz. 1000, 100 and 10 nM at a final DMSO concentration of 0.1% and incubated for 24 h at 37° C., 5% CO2. […] Post run, data were analysed using “Compass for SW” software for chemiluminescent detection. The peak area for each band was used for the calculation of MLLT1 degradation with respect to DMSO control. Data is shown as “MLLT1% degradation”.

| MLLT1% Degradation @ 0.1 μM | MLLT1% Degradation @ 1 μM | Structure (SMILES) | MLLT1% Degradation @ 0.01 μM |
| --- | --- | --- | --- |
| A (Category A: A ≥ 75% degradation) | A (Category A: A ≥ 75% degradation) | C[C@@H]1CN(CC2CCN(c3cccc4c3CN(C3CCC(=O)NC3=O)C4=O)CC2)CCN1c1ccc(C(=O)Nc2cc3[nH]c([C@H]4CCCN4C)cc3cn2)cc1 (relative stereo) [Example 134, 4-((R)-4-((1-(2-((rel-R)-2,6-dioxopiperidin-3-yl)-1-oxoisoindolin-4-yl)piperidin-4-yl)methyl)-2-methylpiperazin-1-yl)-N-(2-((R)-1-methylpyrrolidin-2-yl)-1H-pyrrolo[3,2-c]pyridin-6-yl)benzamide] | B (Category B: 50% ≤ B < 75% degradation) |
| A (Category A: A ≥ 75% degradation) | A (Category A: A ≥ 75% degradation) | CN1CCC[C@@H]1c1cc2cnc(NC(=O)c3ccc(CCCC4CCN(c5cccc6c5CN(C5CCC(=O)NC5=O)C6=O)CC4)cc3)cc2[nH]1 (stereo in doubt) [Example 78, 4-(3-(1-(2-((rel-R)-2,6-dioxopiperidin-3-yl)-1-oxoisoindolin-4-yl)piperidin-4-yl)propyl)-N-(2-((R)-1-methylpyrrolidin-2-yl)-1H-pyrrolo[3,2-c]pyridin-6-yl)benzamide] | B (Category B: 50% ≤ B < 75% degradation) |
| A (Category A: A ≥ 75% degradation) | A (Category A: A ≥ 75% degradation) | CN1CCC[C@@H]1c1cc2cnc(NC(=O)c3ccc(OCCC4CCN(c5cccc6c5CN(C5CCC(=O)NC5=O)C6=O)CC4)cc3)cc2[nH]1 (stereo in doubt) [Example 80, 4-(2-(1-(2-((rel-S)-2,6-dioxopiperidin-3-yl)-1-oxoisoindolin-4-yl)piperidin-4-yl)ethoxy)-N-(2-((R)-1-methylpyrrolidin-2-yl)-1H-pyrrolo[3,2-c]pyridin-6-yl)benzamide] | A (Category A: A ≥ 75% degradation) |
| A (Category A: A ≥ 75% degradation) | A (Category A: A ≥ 75% degradation) | CN1CCC[C@@H]1c1cc2cnc(NC(=O)c3ccc(OCCC4CCN(c5cccc6c5CN(C5CCC(=O)NC5=O)C6=O)CC4)cc3)cc2[nH]1 (stereo in doubt) [Example 81, 4-(2-(1-(2-((rel-R)-2,6-dioxopiperidin-3-yl)-1-oxoisoindolin-4-yl)piperidin-4-yl)ethoxy)-N-(2-((R)-1-methylpyrrolidin-2-yl)-1H-pyrrolo[3,2-c]pyridin-6-yl)benzamide] | A (Category A: A ≥ 75% degradation) |
| A (Category A: A ≥ 75% degradation) | A (Category A: A ≥ 75% degradation) | CN1CCC[C@@H]1c1cc2cnc(NC(=O)c3ccc(OC4CCN(CC5CCN(c6cccc7c6CN(C6CCC(=O)NC6=O)C7=O)CC5)CC4)cc3)cc2[nH]1 (stereo in doubt) [Example 123, 4-((1-((1-(2-((rel-R)-2,6-dioxopiperidin-3-yl)-1-oxoisoindolin-4-yl)piperidin-4-yl)methyl)piperidin-4-yl)oxy)-N-(2-((R)-1-methylpyrrolidin-2-yl)-1H-pyrrolo[3,2-c]pyridin-6-yl)benzamide] | A (Category A: A ≥ 75% degradation) |
| A (Category A: A ≥ 75% degradation) | A (Category A: A ≥ 75% degradation) | CN1CCC[C@@H]1c1[nH]c2cc(NC(=O)c3ccc(OCCC4CCN(c5cccc6c5CN(C5CCC(=O)NC5=O)C6=O)CC4)cc3)ncc2c1Cl (stereo in doubt) [Example 162, N-(3-chloro-2-((R)-1-methylpyrrolidin-2-yl)-1H-pyrrolo[3,2-c]pyridin-6-yl)-4-(2-(1-(2-((rel-R)-2,6-dioxopiperidin-3-yl)-1-oxoisoindolin-4-yl)piperidin-4-yl)ethoxy)benzamide] | A (Category A: A ≥ 75% degradation) |
| A (Category A: A ≥ 75% degradation) | A (Category A: A ≥ 75% degradation) | CN1CCC[C@@H]1c1cc2cnc(NC(=O)c3ccc(OCCC4CCN(c5cccc6c5CN(C5CCC(=O)NC5=O)C6=O)CC4)cc3F)cc2[nH]1 (stereo in doubt) [Example 173, 4-(2-(1-(2-((rel-R)-2,6-dioxopiperidin-3-yl)-1-oxoisoindolin-4-yl)piperidin-4-yl)ethoxy)-2-fluoro-N-(2-((R)-1-methylpyrrolidin-2-yl)-1H-pyrrolo[3,2-c]pyridin-6-yl)benzamide] | B (Category B: 50% ≤ B < 75% degradation) |
| A (Category A: A ≥ 75% degradation) | A (Category A: A ≥ 75% degradation) | CN1CCC[C@@H]1c1cc2cnc(NC(=O)c3ccc(N4CCN(CC5CCN(c6cccc7c6C(=O)N(C6CCC(=O)NC6=O)C7=O)CC5)CC4)nc3)cc2[nH]1 (stereo partly drawn) [Example 5, 6-(4-((1-(2-(2,6-dioxopiperidin-3-yl)-1,3-dioxoisoindolin-4-yl)piperidin-4-yl)methyl)piperazin-1-yl)-N-(2-((R)-1-methylpyrrolidin-2-yl)-1H-pyrrolo[3,2-c]pyridin-6-yl)nicotinamide] | B (Category B: 50% ≤ B < 75% degradation) |
| A (Category A: A ≥ 75% degradation) | A (Category A: A ≥ 75% degradation) | CN1CCC[C@@H]1c1cc2cnc(NC(=O)c3ccc(N4CCC(OCC5CCN(c6cccc7c6C(=O)N(C6CCC(=O)NC6=O)C7=O)CC5)CC4)nc3)cc2[nH]1 (stereo partly drawn) [Example 18, 6-(4-((1-(2-(2,6-dioxopiperidin-3-yl)-1,3-dioxoisoindolin-4-yl)piperidin-4-yl)methoxy)piperidin-1-yl)-N-(2-((R)-1-methylpyrrolidin-2-yl)-1H-pyrrolo[3,2-c]pyridin-6-yl)nicotinamide] | B (Category B: 50% ≤ B < 75% degradation) |

| Structure (SMILES) | MLLT1% Degradation @ 0.1 μM | MLLT1% Degradation @ 1 μM | MLLT1% Degradation @ 0.01 μM |
| --- | --- | --- | --- |
| CN1CCC[C@@H]1c1cc2cnc(NC(=O)N3CCC(CCC#Cc4cccc5c4CN(C4CCC(=O)NC4=O)C5=O)CC3)cc2[nH]1 (stereo partly drawn) [Example 1, 4-(4-(2-(2,6-dioxopiperidin-3-yl)-1-oxoisoindolin-4-yl)but-3-yn-1-yl)-N-(2-((R)-1-methylpyrrolidin-2-yl)-1H-pyrrolo[3,2-c]pyridin-6-yl)piperidine-1-carboxamide] | C (Category C: 25% ≤ C < 50% degradation) | C (Category C: 25% ≤ C < 50% degradation) | C (Category C: 25% ≤ C < 50% degradation) |
| CN1CCC[C@@H]1c1cc2cnc(NC(=O)c3ccc(CCCCC#Cc4cccc5c4CN(C4CCC(=O)NC4=O)C5=O)nc3)cc2[nH]1 (stereo partly drawn) [Example 10, 6-(6-(2-(2,6-dioxopiperidin-3-yl)-1-oxoisoindolin-4-yl)hex-5-yn-1-yl)-N-(2-((R)-1-methylpyrrolidin-2-yl)-1H-pyrrolo[3,2-c]pyridin-6-yl) nicotinamide] | A (Category A: A ≥ 75% degradation) | B (Category B: 50% ≤ B < 75% degradation) | A (Category A: A ≥ 75% degradation) |
| CN1CCC[C@@H]1c1cc2cnc(NC(=O)c3ccc(CCCC#Cc4ccc(C(=O)N[C@H]5CCC(=O)NC5=O)nc4)cc3)cc2[nH]1 [Example 11, N—((S)-2,6-dioxopiperidin-3-yl)-5-(5-(4-((2-((R)-1-methylpyrrolidin-2-yl)-1H-pyrrolo[3,2-c]pyridin-6-yl)carbamoyl)phenyl)pent-1-yn-1-yl)picolinamide] | C (Category C: 25% ≤ C < 50% degradation) | B (Category B: 50% ≤ B < 75% degradation) | D (Category D: D < 25% degradation) |
| CN1CCC[C@@H]1c1cc2cnc(NC(=O)c3ccc(C4CCN(c5cccc6c5C(=O)N(C5CCC(=O)NC5=O)C6=O)CC4)cc3)cc2[nH]1 (stereo partly drawn) [Example 15, 4-(1-(2-(2,6-dioxopiperidin-3-yl)-1,3-dioxoisoindolin-4-yl)piperidin-4-yl)-N-(2-((R)-1-methylpyrrolidin-2-yl)-1H-pyrrolo[3,2-c]pyridin-6-yl)benzamide] | A (Category A: A ≥ 75% degradation) | B (Category B: 50% ≤ B < 75% degradation) | B (Category B: 50% ≤ B < 75% degradation) |
| CN1CCC[C@@H]1c1cc2cnc(NC(=O)c3ccc(OCC#Cc4cccc5c4CN(C4CCC(=O)NC4=O)C5=O)c(Cl)c3)cc2[nH]1 (stereo partly drawn) [Example 23, 3-chloro-4-((3-(2-(2,6-dioxopiperidin-3-yl)-1-oxoisoindolin-4-yl)prop-2-yn-1-yl)oxy)-N-(2-((R)-1-methylpyrrolidin-2-yl)-1H-pyrrolo[3,2-c]pyridin-6-yl)benzamide] | C (Category C: 25% ≤ C < 50% degradation) | C (Category C: 25% ≤ C < 50% degradation) | C (Category C: 25% ≤ C < 50% degradation) |
